Values belong to the molecule of their own block, whether it stands above or below them.
Assays:
[1] = alamar Blue viability assay; assay type: cell-based; conditions: human, 24 hours, vs DMSO
Experimental: (§1) Tumor cell lines of metastatic breast cancer (MDA-MB-231), breast cancer (MCF7), human monocytic leukemia (THP-1) and pancreatic carcinoma (PANC-1) have been cultured in a complete DMEM or RPMI 1640 (Gibco Life Technologies) supplemented with 10% fetal bovine serum (FBS, Lonza), 2 mM L-glutamine and 100 U/ml penicillin-streptomycin (Lonza). The cell lines have been cultured at 37° C. in 5% CO2 and have been regularly tested for Mycoplasma contamination. The viability has been measured by means of alamar Blue assay (Thermo Fisher) under treatment for 24 hours with nanomolar to micromolar doses of aza-tanshinones. The mean viability and the standard deviation (SD) per each test compound have been obtained from the dose-response curves for triple doses (0.01, 0.1, 1. 10. 50 μM) in comparison with the control vehicle (DMSO).
(§2) The group of cell lines used in Paragraph 8.2, with the addition of the tumor cell lines of the metastatic breast cancer SK-BR-3 and of the colon adenocarcinoma SW-480, has been used to measure the IC50/cytotoxicity potency of compound 26. The viability assays have been performed as shown in Paragraph 8.2.

[2] = alamar Blue viability assay; assay type: cell-based, human; conditions: human, THP-1 cells (monocytic leukemia), 24 hours, vs DMSO; for viability at 24 h, 10 µM: THP1, 10 μM; for viability at 24 h, 50 µM: THP1, 50 μM
Experimental: as §1, §2

HuR-mRNA interaction = target: T1, HuR-mRNA interaction (Homo sapiens, UniProt Q15717); test: AlphaScreen assay, inhibition of HuR-mRNA interaction; assay type: binding; conditions: for IC50: rHuR and biotinylated RNA probe
T1 construct: made in house; host or cells: HEK293T cells
Experimental: The full encoding sequence for human HuR/ELAVL1 gene (NM001419) has been amplified from cDNA obtained by retro-transcription from RNA of MCF7 cells and inserted into the pCMV6-AC-Myc-His PrecisionShuttle vector (Origene Technologies). The pCMV6-HuR recombinant vector has been transfected into HEK293T cells by using the transfection reagent Lipofectamine® 2000 (Life Technologies) according to the manufacturer protocol. HEK293T cells have been cultured in a complete medium (10% DMEM, 10% FBS, 2 mM Glutamine, 100 units/ml penicillin+100 μg/ml streptomycin) in humidified 5% CO2 atmosphere at 37° C.
Two types of assay have been performed, in order to define the profile of the aza-tanshinones and their inhibitory activity. REMSA (RNA-EMSA, RNA electrophoresis mobility shift assay) in 5% polyacrylamide gel requires the use of a RNA fluorescent probe (5′-Cy3-[…]), while the AlphaScreen assay required a RNA 5′-biotinylated probe (BiTNF, 5′-[…]). […] IC50 values have been obtained by means of non-linear regression of the fit of the log(dose) response by using the same software.

MCF7 = test: alamar Blue viability assay; assay type: cell-based; conditions: for Viability: vs DMSO
Experimental: as §1, §2

SW-480 = test: alamar Blue viability assay; assay type: cell-based
Experimental: as §1, §2

MDA-MB-231 [3] = test: alamar Blue viability assay; assay type: cell-based; conditions: for Viability: vs DMSO
Experimental: as §1, §2

SK-BR-3 = test: alamar Blue viability assay; assay type: cell-based
Experimental: as §1, §2

PANC-1 = test: alamar Blue viability assay; assay type: cell-based; conditions: for Viability: vs DMSO
Experimental: as §1, §2

MDA-MB-231 cells = test: xCELLigence trans-well migration assay; assay type: cell-based; conditions: MDA-MB-231, THP1-conditioned medium
Description: Migration assays have been carried out by using the xCELLigence RTCA DP Instrument (Roche) by seeding 5,000 cells/well at t0 in CIM-Plates-16 (Roche), using the 1% FBS medium (THP1 conditions) in the lower chamber and MDA-MB-231 cells seeded in the same way in the upper chamber. The ability of the MDA-MB-231 cells to migrate depends also on the presence of cytokines regulated by HuR in the surrounding environment.

[4] = test system: THP-1 human leukemia monocytes; test: Cytokine mRNA levels by Q-RT-PCR; assay type: cell-based; conditions: THP-1, LPS 26 vs LPS DMSO = 1
Experimental: THP-1 human leukemia monocytes (5*10^4/well) have been seeded in a 6-well plate and cultured under standard conditions for 24 hours as already described. The mRNA total levels for a group of cytokines have been quantified by means of standard quantitative real-time PCR (Q-RT-PCR). Two-way ANOVA has been applied for a statistical significance of the effects of compound 26 on the decrease of the mRNA of the cytokines.

[5] = test system: TNF mRNA in MCF-7 breast cancer cells; test: Downregulation of TNF mRNA with LPS co-treatment; assay type: cell-based
Experimental: MCF-7 breast cancer cells (5*10^4/well) have been seeded in 6-well plates and cultured under standard conditions for 24 hours. The MCF-7 cells have then been treated for 3 hours in a complete medium with compound 26, or with DMSO/control vehicle. Three hours of treatment with DHTS in the MCF-7 cells have been enough to observe HuR-dependent post-transcriptional effects (44), whereby the same experimental conditions have been used here, including the co-treatment with lipopolysaccharide (LPS) as positive control to induce the TNF expression.

THP-1 = test: alamar Blue viability assay; assay type: cell-based, human; conditions: for Viability: vs DMSO
Experimental: as §1, §2

PANC1 = test: Scratch assay; assay type: cell-based; conditions: 24 hours
Experimental: (§3) Scratch assays have been carried out on 6-well plates and, after treatment for 24 hours with aza-tanshinone 26, the empty area of the scratched wells has been calculated by using the ImageJ software. The experiments have been carried out in duplicate.

MDA-MB-231 [6] = test: Scratch assay; assay type: cell-based; conditions: 24 hours (DMSO 35 ± 1.92)
Experimental: as §3

[7] = MCF7 cells (breast cancer), MCF7, 10 μM
[8] = MCF7 cells (breast cancer), MCF7, 50 μM
[9] = MDA-MB-231 cells (metastatic breast cancer), MDA-MB-231, 10 μM
[10] = MDA-MB-231 cells (metastatic breast cancer), MDA-MB-231, 50 μM
[11] = PANC-1 cells (pancreatic carcinoma), PANC-1, 10 μM
[12] = PANC-1 cells (pancreatic carcinoma), PANC-1, 50 μM

T1 sequence (Q15717 whole entry): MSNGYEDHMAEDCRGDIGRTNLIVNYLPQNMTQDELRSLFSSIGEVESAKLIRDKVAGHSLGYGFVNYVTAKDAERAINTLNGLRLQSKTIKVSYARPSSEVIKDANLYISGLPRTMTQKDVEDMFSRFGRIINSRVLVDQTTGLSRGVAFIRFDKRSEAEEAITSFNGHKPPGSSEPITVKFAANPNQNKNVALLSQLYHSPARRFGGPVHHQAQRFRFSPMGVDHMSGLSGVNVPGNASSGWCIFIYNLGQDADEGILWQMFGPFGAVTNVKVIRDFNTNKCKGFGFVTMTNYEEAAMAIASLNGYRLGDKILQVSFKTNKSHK

IC50 (HuR-mRNA interaction): 241 ± 42 nM
Compound: O=C1C=Cc2c(c(-c3ccccc3)cn2S(=O)(=O)c2ccc([N+](=O)[O-])cc2)C1=O [Compound 23, 1-(p-Nitrophenylsulfonyl)-3-phenyl-4,5-dioxo indole]
viability at 24 h, 10 µM [1, 7]: 100%
viability at 24 h, 50 µM [1, 8]: 66%
viability at 24 h, 10 µM [1, 9]: 104%
viability at 24 h, 50 µM [1, 10]: 80%
viability at 24 h, 10 µM [1, 11]: 92%
viability at 24 h, 50 µM [1, 12]: 36%
viability at 24 h, 10 µM [2]: 98%
viability at 24 h, 50 µM [2]: 31%

IC50 (HuR-mRNA interaction): 251 ± 31 nM
Compound: O=C1C=Cc2c(c(-c3ccccc3)cn2S(=O)(=O)c2cccc(F)c2)C1=O [Compound 27, 1-(m-Fluorophenylsulfonyl)-3-phenyl-4,5-dioxo indole]
viability at 24 h, 10 µM [1, 7]: 108%
viability at 24 h, 50 µM [1, 8]: 79%
viability at 24 h, 10 µM [1, 9]: 103%
viability at 24 h, 50 µM [1, 10]: 51%
viability at 24 h, 10 µM [1, 11]: 102%
viability at 24 h, 50 µM [1, 12]: 20%
viability at 24 h, 10 µM [2]: 83%
viability at 24 h, 50 µM [2]: 32%

IC50 (HuR-mRNA interaction): 287 ± 30 nM
Compound: COc1ccc(-c2cn(S(=O)(=O)c3ccccc3)c3c2C(=O)C(=O)C=C3)cc1 [Compound 28, 1-phenylsulfonyl-3-(p-methoxyphenyl)-4,5-dioxo indole]
viability at 24 h, 10 µM [1, 7]: 91%
viability at 24 h, 50 µM [1, 8]: 75%
viability at 24 h, 10 µM [1, 9]: 106%
viability at 24 h, 50 µM [1, 10]: 57%
viability at 24 h, 10 µM [1, 11]: 90%
viability at 24 h, 50 µM [1, 12]: 32%
viability at 24 h, 10 µM [2]: 105%
viability at 24 h, 50 µM [2]: 46%

IC50 (HuR-mRNA interaction): 352 ± 57 nM
Compound: COc1cccc(-c2cn(S(=O)(=O)c3ccccc3)c3c2C(=O)C(=O)C=C3)c1 [Compound 29, 1-Phenylsulfonyl-3-(m-methoxyphenyl)-4,5-dioxoindole]

Second part, the molecule before the results:

Compound: O=C1C=Cc2c(c(-c3ccccc3)cn2S(=O)(=O)c2cccc([N+](=O)[O-])c2)C1=O [Compound 24, 1-(m-Nitrophenylsulfonyl)-3-phenyl-4,5-dioxoindole]
viability at 24 h, 10 µM [1, 7]: 100%
viability at 24 h, 50 µM [1, 8]: 54%
viability at 24 h, 10 µM [1, 9]: 94%
viability at 24 h, 50 µM [1, 10]: 36%
viability at 24 h, 10 µM [1, 11]: 91%
viability at 24 h, 50 µM [1, 12]: 20%
viability at 24 h, 10 µM [2]: 100%
viability at 24 h, 50 µM [2]: 27%
IC50 (HuR-mRNA interaction): 342 ± 64 nM

Compound: O=C1C=Cc2c(c(-c3ccccc3)cn2S(=O)(=O)c2ccc(F)cc2)C1=O [Compound 25, 1-(p-Fluorophenylsulfonyl)-3-phenyl-4,5-dioxo indole]
viability at 24 h, 10 µM [1, 7]: 100%
viability at 24 h, 50 µM [1, 8]: 63%
viability at 24 h, 10 µM [1, 9]: 103%
viability at 24 h, 50 µM [1, 10]: 50%
viability at 24 h, 10 µM [1, 11]: 100%
viability at 24 h, 50 µM [1, 12]: 29%
viability at 24 h, 10 µM [2]: 100%
viability at 24 h, 50 µM [2]: 35%

Compound: O=C1C=Cc2c(c(-c3ccccc3)cn2S(=O)(=O)c2ccccc2)C1=O [Compound 26, 1-Phenylsulfonyl-3-phenyl-4,5-dioxo indole]
IC50 (MCF7; Homo sapiens, MCF7, cytotoxicity, 24 hours): 3850 ± 80 nM
% cell death (MCF7; MCF7): 71%
IC50 (SW-480; Homo sapiens, SW480, cytotoxicity, 24 hours): 4810 ± 230 nM
% cell death (SW-480; SW480): 62%
IC50 (MDA-MB-231 [3]; Homo sapiens, MDA-MB-231, cytotoxicity, 24 hours): 1570 ± 40 nM
% cell death (MDA-MB-231 [3]; MDA-MB-231): 66%
IC50 (SK-BR-3; Homo sapiens, SK-BR-3, cytotoxicity, 24 hours): 5180 ± 110 nM
% cell death (SK-BR-3; SK-BR-3): 57%
IC50 (PANC-1; Homo sapiens, PANC-1, cytotoxicity, 24 hours): 6270 ± 70 nM
% cell death (PANC-1; PANC-1): 49%
Minimum of trans-well migration (MDA-MB-231 cells; 26 1 μM (LPS control 0.7176)): 0.1057
Maximum of trans-well migration (MDA-MB-231 cells; 26 1 μM (LPS control 3.053)): 1.246
Minimum of trans-well migration (MDA-MB-231 cells; 26 5 μM (LPS control 0.7176)): 0.1416
Maximum of trans-well migration (MDA-MB-231 cells; 26 5 μM (LPS control 3.053)): 0.3311
CCL2 mRNA level [4]: 0.88
CCL5 mRNA level [4]: 0.51
CCL8 mRNA level [4]: 0.00
IFNA1 mRNA level [4]: 0.46
IFNB1 mRNA level [4]: 0.33
IFNG mRNA level [4]: 0.38
IL1A mRNA level [4]: 1.04
IL1B mRNA level [4]: 0.22
IL2 mRNA level [4]: 1.18
IL4 mRNA level [4]: 0.82
IL7 mRNA level [4]: 0.56
IL8 mRNA level [4]: 0.15
IL10 mRNA level [4]: 0.16
IL13 mRNA level [4]: 0.53
IL15 mRNA level [4]: 0.91
IL17A mRNA level [4]: 0.30
IL18 mRNA level [4]: 0.36
IL19 mRNA level [4]: 0.01
TNF mRNA level [4]: 0.38
TNF mRNA level ([5]; MCF-7, LPS+26, 3 hours (LPS+DMSO 1.62)): 1.00
TNF RNA amount ([5]; MCF-7, LPS+26 relative to LPS+DMSO, 3 hours): 62%
reduction of the TNF mRNA with respect to the control ([5]; MCF-7, after 3 hours): 35%
IC50 (THP-1; Homo sapiens, THP-1, cytotoxicity, 24 hours): 9770 ± 150 nM
% cell death (THP-1; THP-1): 52%
empty area of the scratched wells (PANC1; PANC1, 26 1 μM): 38 ± 7
empty area of the scratched wells (PANC1; PANC1, 26 5 μM): 32 ± 0.01
empty area of the scratched wells (MDA-MB-231 [6]; MDA-MB-231, 26 1 μM): 45 ± 4
empty area of the scratched wells (MDA-MB-231 [6]; MDA-MB-231, 26 5 μM): 45 ± 1

Compound: O=C1C(=O)c2c(-c3ccccc3)cn(S(=O)(=O)c3ccccc3)c2C2=C1C1CCC2CC1 [Compound 32, 3-Phenyl-1-phenylsulfonyl-4,5-dioxo-6,9-ethanbenzo[g]indole]
Viability (MCF7; MCF7, 10 μM, 24 hours): 1.09
Viability (MCF7; MCF7, 50 μM, 24 hours): 0.14
Viability (MDA-MB-231 [3]; MDA-MB-231, 10 μM, 24 hours): 1.00
Viability (MDA-MB-231 [3]; MDA-MB-231, 50 μM, 24 hours): 0.28
Viability (PANC-1; PANC-1, 10 μM, 24 hours): 0.85
Viability (PANC-1; PANC-1, 50 μM, 24 hours): 0.15
Viability (THP-1; THP1, 10 μM, 24 hours): 0.55
Viability (THP-1; THP1, 50 μM, 24 hours): 0.00
cell death (THP-1; THP-1 cells, 10 μM): greater than 20%
IC50 (HuR-mRNA interaction): 121 ± 55 nM

Compound: Cc1cccc2c3c(ccc12)C1=C(C(=O)C3=O)[C@@H](C)CO1 [DHTS, Dihydrotanshinone, reference compound]
Ki (HuR-mRNA interaction; 1-site competition model, RNA 50 nM, Kd 2.5 nM, read-out: Complete Ki): 3.74 ± 1.63 nM
IC50 (HuR-mRNA interaction): 149 ± 34 nM
